Assay results: patent publication US6610708B1, “Cyclic amino compounds” (Sankyo Company, Limited, priority 1998, dated 2003)

Columns and labels:
Human Platelets = test: Antiaggregatory action in human platelets (ADP-induced aggregation in platelet-rich plasma); type: cell-based; conditions: Platelet, human PRP, read-out: Test 1 (% inhibition) of platelet aggregation; for inhibition at 10 µg/mL: 10 μg/ml test compound; for inhibition at 30 µg/mL: 30 μg/ml test compound; for inhibition at 100 µg/mL: 100 μg/ml test compound
Experimental: Antiaggregatory Action in Human Platelets
Platelet aggregation was measured using an automatic platelet aggregometer (PAM-8C, Mebanix) using the method of G.V.R. Born [Nature, 194, 927-929 ([…])] with a slight modification. Blood was collected from the antecubital vein of healthy volunteers who had not taken any medications for two weeks using 3.8% sodium citrate as an anticoagulant ( 1/9 volumes of blood). Platelet-rich plasma (PRP) was obtained by centrifugation (CR5DL, Hitachi) at 200× g for 15 min at room temperature. Platelet-poor plasma (PPP) was obtained by centrifugation of the remaining blood at 2,000× g for 10 min at room temperature. Platelet counts in PRP were measured by an automatic hematology analyzer (K-1000, Toa Iyo Denshi), and adjusted to 3×10^8 /ml by adding PPP. PRP prepared as described above was used for the platelet aggregation experiment. PRP (0.24 ml) containing a test compound was added to a cuvette and set placed in the platelet aggregometer. After pre-incubation for 1.5 min at 37° C., 0.01 ml of 0.25 mM ADP were added to the cuvette to induce platelet aggregation. Platelet aggregation was monitored for 10 min.
Antiaggregatory action of the test compound was determined as a percent inhibition (%) against platelet aggregation of a control (free of the test compound).

platelet aggregation = test: Antiaggregatory action in rats (ADP-induced platelet aggregation in PRP after intravenous administration); type: in vivo; conditions: Rattus norvegicus, 1 h, male SD rats, blood collected one hour after administration, versus control rats, read-out: Test 2 (% inhibition)
Experimental: Antiaggregatory Action in Rats
Platelet aggregation was measured using an automatic platelet aggregometer (PAM-8C, Mebanix) using the method of G.V.R. Born [Nature, 194, 927-929(1962)] with a slight modification. The experimental animals were male SD rats (Japan SLC). One hour after intravenous administration of a test compound to the rats, blood was collected from the abdominal aorta under anesthesia, using 3.8% sodium citrate as an anticoagulant ( 1/9 volumes of blood). Platelet-rich plasma (PRP) was obtained by centrifugation (CR5DL, Hitachi) at 230× g for 15 min at room temperature. Platelet-poor plasma (PPP) was obtained by centrifugation of the remaining blood at 2,000× g for 10 min at room temperature. Platelet counts in PRP were measured by an automatic hematology analyzer (K-1000, Toa Iyo Denshi), and adjusted to 5×10^8 /ml by adding PPP, and then used for the platelet aggregation experiment. PRP (0.24 ml) was added to a cuvette and placed in the platelet aggregometer. After pre-incubation for 1.5 min at 37° C., 0.01 ml of 0.75 mM ADP were added to the cuvette to induce platelet aggregation. Platelet aggregation was monitored for 8 min.
Antiaggregatory action (% inhibition) of the test compound was determined from a comparison of the maximum aggregation of the test compound-treated rat with that of control rats (free of the administration of the test compound).

With `Cc1ccc(S(=O)(=O)SC2CCN(C(C(=O)C3CC3)c3ccccc3F)CC2)cc1` (stereo not drawn) [Example 1, 1-(α-Cyclopropylcarbonyl-2-fluorobenzyl)-4-(4-methylphenylsulfonylthio)-piperidine] the inhibition at 10 µg/mL (Human Platelets) was 36.5%, the inhibition at 30 µg/mL (Human Platelets) was 99.6% and the inhibition at 100 µg/mL (Human Platelets) was 100%. The melting point was 63 to 69 °C.
For `COC(=O)/C=C1\CN(C(C(=O)OC)c2ccccc2Cl)CCC1SS(=O)(=O)c1ccc(C)cc1` (stereo not drawn) [Example 7 (ii), (E)-1-(2-Chloro-α-methoxycarbonylbenzyl)-3-methoxycarbonylmethylidene-4-(4-methylphenylsulfonylthio)piperidine], the inhibition at 10 µg/mL (Human Platelets) was 34.5%, the inhibition at 30 µg/mL (Human Platelets) was 81.5% and the melting point was 144 to 146 °C.
In the case of `N[C@@H](CSSC1CCN(C(C(=O)C2CC2)c2ccccc2F)C/C1=C/C(=O)O)C(=O)O` (stereo partly drawn) [Example 19 (d), (Z)-4-[(R)-2-Amino-2-carboxyethyldisulfanyl]-3-carboxymethylidene-1-(α-cyclopropylcarbonyl-2-fluorobenzyl)piperidine], the inhibition at 10 mg/kg (platelet aggregation) is reported as 89.2%.
Compound `CCOC(=O)/C=C1\CN(C(C(=O)OC)c2ccccc2Cl)CCC1SS(=O)(=O)c1ccc(C)cc1.Cl` (stereo not drawn) [Example 7 (d), (E)-1-(2-chloro-α-methoxycarbonylbenzyl)-3-ethoxycarbonylmethylidene-4-(4-methylphenylsulfonylthio)piperidine hydrochloride] has an inhibition at 10 µg/mL (Human Platelets) of 24.6%, an inhibition at 30 µg/mL (Human Platelets) of 60% and an inhibition at 100 µg/mL (Human Platelets) of 99.1%. It also gave a melting point of 73 to 78 °C and an inhibition at 10 mg/kg (platelet aggregation) of 59%.
In the case of `CCOC(=O)/C=C1\CN(C(C(=O)C2CC2)c2ccccc2F)CCC1SS(=O)(=O)c1ccc(C)cc1` (stereo not drawn) [Example 6 (d), (E)-1-(α-Cyclopropylcarbonyl-2-fluorobenzyl)-3-ethoxycarbonylmethylidene-4-(4-methylphenylsulfonylthio)piperidine], the inhibition at 10 µg/mL (Human Platelets) is reported as 22.5%, the inhibition at 30 µg/mL (Human Platelets) is reported as 53.2% and the inhibition at 100 µg/mL (Human Platelets) is reported as 100%. For the same compound, the inhibition at 10 mg/kg (platelet aggregation) was 51.8%.
Work on `Cc1ccc(SSC2CCN(C(C(=O)C3CC3)c3ccccc3F)CC2)cc1` (stereo not drawn) [Example 16, 1-(α-Cyclopropylcarbonyl-2-fluorobenzyl)-4-(4-methylphenyldisulfanyl)-piperidine] yielded a melting point of 96 to 103 °C.
Work on `CS(=O)(=O)SC1CCN(C(C(=O)C2CC2)c2ccccc2F)CC1` (stereo not drawn) [Example 8, 1-(α-Cyclopropylcarbonyl-2-fluorobenzyl)-4-methylsulfonylthiopiperidine] yielded an inhibition at 10 µg/mL (Human Platelets) of 19.5%, an inhibition at 30 µg/mL (Human Platelets) of 88% and an inhibition at 100 µg/mL (Human Platelets) of 100%. For the same compound, the melting point was 89 to 91 °C.
